Where “and” joins values, the source holds several entries; their conditions need not be identical. Equal entries are not always repeated. Numbers after ± are expanded uncertainties.
Conditions: 101.33 kPa, Liquid, Alternating current cell with electrodes

With CCOS(=O)(=O)[O-].CCn1cc[n+](C)c1 [1-ethyl-3-methylimidazolium ethyl sulfate] the electrical conductivity (288.15 K) was 0.235 ± 0.0095 S/m, the electrical conductivity (288.16 K) was 0.235 ± 0.0095 S/m and the electrical conductivity (293.12 K) was 0.302 ± 0.012 S/m. For the same molecule, the electrical conductivity (298.08 K) was 0.381 ± 0.015 S/m, the electrical conductivity (303.15 K) was 0.473 ± 0.019 S/m and the electrical conductivity (308.11 K) was 0.576 ± 0.023 S/m. It also gave an electrical conductivity (313.07 K) of 0.69 ± 0.028 S/m, an electrical conductivity (323.08 K) of 0.961 ± 0.038 S/m and an electrical conductivity (333.11 K) of 1.28 ± 0.051 S/m.

With CCn1cc[n+](C)c1.O=S(=O)([N-]S(=O)(=O)C(F)(F)F)C(F)(F)F the electrical conductivity (288.16 K) was 0.644 S/m and 0.645 S/m, the electrical conductivity (293.12 K) was 0.768 ± 0.031 S/m and the electrical conductivity (298.08 K) was 0.905 ± 0.036 S/m. For the same molecule, the electrical conductivity (303.15 K) was 1.06 ± 0.043 S/m, the electrical conductivity (308.11 K) was 1.22 ± 0.049 S/m and the electrical conductivity (313.06 K) was 1.39 ± 0.056 S/m. The electrical conductivity (323.07 K) was 1.77 ± 0.071 S/m and the electrical conductivity (333.11 K) was 2.2 ± 0.088 S/m.

Work on CCCCCC[n+]1ccn(C)c1.O=S(=O)([N-]S(=O)(=O)C(F)(F)F)C(F)(F)F yielded an electrical conductivity (288.27 K) of 0.136 S/m, an electrical conductivity (293.13 K) of 0.172 ± 0.0069 S/m and an electrical conductivity (298.1 K) of 0.216 ± 0.0087 S/m. The electrical conductivity (303.18 K) was 0.268 ± 0.011 S/m, the electrical conductivity (308.13 K) was 0.326 ± 0.013 S/m and the electrical conductivity (313.08 K) was 0.391 ± 0.016 S/m. The electrical conductivity (323.11 K) was 0.544 ± 0.022 S/m and the electrical conductivity (333.01 K) was 0.725 ± 0.029 S/m.

CCn1cc[n+](C)c1.O=S(=O)([O-])C(F)(F)F [1-ethyl-3-methylimidazolium trifluoromethanesulfonate] gave an electrical conductivity (288.15 K) of 0.623 ± 0.037 S/m, an electrical conductivity (288.16 K) of 0.629 ± 0.038 S/m and an electrical conductivity (293.11 K) of 0.747 ± 0.045 S/m. For the same molecule, the electrical conductivity (298.16 K) was 0.886 ± 0.053 S/m, the electrical conductivity (303.12 K) was 1.04 ± 0.062 S/m and the electrical conductivity (308.08 K) was 1.2 ± 0.072 S/m. For the same molecule, the electrical conductivity (313.16 K) was 1.39 ± 0.083 S/m, the electrical conductivity (323.06 K) was 1.78 ± 0.11 S/m and the electrical conductivity (333.1 K) was 2.24 ± 0.13 S/m.

Reference: the NIST ThermoML archive (doi:10.1007/s10765-013-1491-2)
